Measured values as given in patent US20090082400A1, “SOLUBLE PYRONE ANALOGS METHODS AND COMPOSITIONS” (priority 2007, published 2009).
Values joined by “and” are separate entries in the source; they are usually repeats but may differ in a detail not shown here. Identical values can stand only once. “Also recorded” adds a separate entry of the source. Blank lines part the entries; values can stand above or below the molecule they belong to.

Columns and labels:
[1] = Fisetin-sulfobutylether-7-β-cyclodextrin solution: concentration and precipitation; format: physicochemical; conditions: approximately 1:2.5 molar ratio of fisetin to Captisol; pH 7.8-7.9
Procedure: Captisol™ (17.9 g) is dissolved in 55 ml of distilled (or deionized) water. Fisetin (anhydrous) (965 mg) is then added to the above solution. The mixture is stirred vigorously followed by sonication if necessary to break up any clumps so that a homogeneous suspension is obtained.
While stirring vigorously, a 1 N NaOH solution (12.0 ml) is added slowly and for the formation of the fisetin-Captisol inclusion complex. The resulting solution will be at about pH 12.5 and may have an orange-brown color. The solution is not kept long at this pH, and is quickly neutralized in the following step.
While stirring, add 1N HCl solution (9 ml) dropwise to attain pH to 7.8-7.9. The final solution may be light-yellow to light orange in color. In some cases, the pH can be brought to below pH 7.8. […] Add water to a final volume of 100 ml.
This solution will contain approximately a 1:2.5 molar ratio of fisetin to Captisol. This procedure is for preparing an approximately 9.47 mg/ml fisetin solution. In some cases, the solution can be further diluted to make a solution for injection or for oral administration, for example, by diluting with either 0.9% saline solution and/or with a solution containing dextrose.

[2] = in vivo; cited from earlier work
[3] = Zheng, et al. J. Pharm. Sci. 94(5), 2005; cited from earlier work
[4] = Sulfobutylether-7-β-cyclodextrin-quercetin aqueous composition: concentration and storage stability; format: physicochemical; conditions: quercetin at 10 mg/ml in water with sulfobutylether-7-β-cyclodextrin
Procedure: The flask is placed in an ice bath. […] Into the flask, 12 ml of 1 N sodium hydroxide is added over about 5 to 10 minutes. […] Into the flask is then added 10.5 ml of hydrochloric acid over 5 to 10 minutes at a slow enough rate to avoid precipitation. During the addition of the sodium hydroxide and the hydrochloric acid, the temperature is maintained at less than 20° C. DI water is then added to give total volume of 100 ml.

[5] = test system: rats; test: Blood glucose levels in rats co-administered tacrolimus and flavonoid-sulfobutylether-7-β-cyclodextrin; format: in vivo, rat
Procedure: One set of 5 rats is treated from day 1 to day 25 with inert vehicle 2 intraperitoneally and treated from day 11 to day 25 with inert vehicle 1 intraperitoneally. […] A third set 5 of rats is treated from day 1 to day 25 intraperitoneally with tacrolimus (Prograf®) at 0.5 mg/kg, and treated from day 11 to day 25 with sulfobutylether-7-β-cyclodextrin (Q-Captisol) at 100 mg/kg. A fourth set 5 of rats is treated from day 1 to day 25 intraperitoneally with tacrolimus (Prograft®) at 0.5 mg/kg, and treated from day 11 to day 25 with fisetin-sulfobutylether-7-β-cyclodextrin (Fisetin-Captisol) at 85 mg/kg. The blood glucose level in the rats was measured on days 1, 10, 15, 20, and 25.

[6] = Pharmacokinetic parameters of oral tacrolimus in the presence of Q-Captisol in healthy human volunteers; format: in vivo
Procedure: Tacrolimus-quercetin pharmacokinetic interactions are evaluated in N=15 healthy male subjects in an open-label, three-way crossover study of i.v. or oral quercetin-sulfobutylether-7-β-cyclodextrin (Q-Captisol) administered in combination with oral tacrolimus. Q-Captisol stock dosing solutions are prepared in aqueous Captisol (CyDex Inc.) using sodium hydroxide to facilitate dissolution. The final solution is adjusted to a final pH=7.5 to 8.0 using dilute sodium hydroxide or HCl. Stock solutions are aseptically filtered into a sterile IV bag and diluted to final volume with sterile saline. Q-Captisol oral dosing solutions are prepared by transferring the stock solution to a dosing cup and diluting to the final volume with deionized water. Oral tacrolimus is administered using commercially-available Prograf® capsules, with each capsule containing 1 mg tacrolimus and the excipient lactose.
In Period 1, all subjects received only a single dose of oral tacrolimus (1 mg).
In Period 2, all subjects received 3× daily oral doses of Q-Captisol on Days 12, 13, and 14. On Day 14, subjects received a single dose of oral tacrolimus (1 mg)
In Period 3, i.v. infusions of Q-Captisol are administered over 20 min via an indwelling cannula. Tacrolimus (1 mg) is administered orally 60 min after the start of the administration of the i.v. Q-Captisol dose.
The dosing regimen is as follows:
Period 1: Day 1: single oral dose of 1 mg tacrolimus
Period 2: Day 12: three times per day (Q 8 hrs) single oral dose of 100 mg Q-Captisol
Day 13: three times per day (Q 8 hrs) single oral dose of 100 mg Q-Captisol
Day 14: three times per day (Q 8 hrs) single oral dose of 100 mg Q-Captisol, with a single oral dose of 1 mg tacrolimus following the first dose of Q-Captisol.
Period 3: Day 25: single IV infusion of 100 mg Q-Captisol followed by a single oral dose of 1 mg tacrolimus.
In Period 1, blood samples for determination of tacrolimus pharmacokinetics are obtained at 0 min (pre-dose), then at 0.25, 0.5, 1, 2, 4, 8, 12, 24, 48, and 72 hr. Similar time periods are used to obtain tacrolimus blood sampled in Periods 2 and 3. Blood samples (0.4 ml) are withdrawn into K2-EDTA tubes from either an indwelling cannula or via venipuncture, then processed to yield plasma. Plasma samples are transferred to fresh tubes and frozen prior to shipment to the analytical laboratory.
(§1) The tacrolimus concentrations in plasma are determined using validated assay methods via an LC/MS/MS analytical technique. Major pharmacokinetic parameters, including area under the concentration versus time curve from time zero to the time of last measurable concentration (AUCt), area under the concentration versus time curve from time zero to infinite time (AUCinf), maximum observed concentration (Cmax), time to reach maximum observed blood or plasma concentration (Tmax), apparent terminal elimination rate constant (Kcl), clearance (CL), and half-life (T1/2), are determined from the plasma concentration data. Samples are analysed from all 15 subjects; one subject is a clear outlier and is excluded from the final analysis (N=14 subjects per dose regimen).

[7] = Pharmacokinetic parameters of i.v. tacrolimus in the presence of Q-Captisol in male Lewis rats; format: in vivo; conditions: rat, whole blood, iv, tacrolimus 1 mg/kg i.v.; for AUC / Cmax / Vd / clearance / half-life: male, Lewis, 1 mg/kg
Procedure: Male Lewis rats (Charles River Laboratories; 8-9 weeks old; mean weights 282-285 gm) are randomly assigned to treatment groups by a computerized body weight stratification procedure. Quercetin-Sulfobutylether-7-β-cyclodextrin (Q-Captisol) is prepared as a dosing solution using Captisol (B-cyclodextrin-sulfobutyl ether sodium salt; CyDex Inc.) along with 1 molar equivalent of sodium hydroxide. Q-Captisol is administered intraperitoneally (i.p.) at doses of 0, 25, 150, or 300 mg/kg (N=9 rats/dose). Tacrolimus (1 mg/kg i.v.) is dosed at 0.2 ml/kg directly from Prograf 5 mg/ml clinical dosing solutions. […] Whole blood is collected in EDTA tubes from the retro-orbital sinus under 60:40 CO2:O2 anesthesia at 9 time periods using N=3 animals per time period: 5, 15, and 30 min; 1, 2, 3, 6, 8, and 24 hr after administration of tacrolimus. To avoid excessive blood loss from individual animals, 3 blood samples per rat are collected at specified time intervals, so the final samples for analysis contained N=3 blood samples per time period. Whole blood samples are froze on dry ice and stored frozen at −80° C. prior to analysis.
Thawed whole blood (200 μl) is transferred to a separate glass tube with 100 μl of ascomycin (Internal Standard: 100 ng/ml in 10% methanol) and 20 μl of 10% methanol. Samples are treated with 400 μl of 0.1 M zinc sulfate and then 100 μl of acetonitrile to precipitate proteins. Samples are vortexed, then centrifuged at 4000 rpm for 5 min. 500 μl of supernatant is transferred to a clean glass tube containing 1000 μl of water and vortexed thoroughly. Mixtures are loaded onto a 100 mg C18 cartridge (SPE column) preconditioned with 1 ml of methanol, followed by 1 ml of water. The cartridge is washed 2× with 1 ml water, followed by 100 μl methanol. Tacrolimus and Internal Standard are eluted with 500 μl of methanol into an HPLC vial containing 1000 μl of 10 mM ammonium acetate. Samples are vortexed, then centrifuged at 4000 rpm for 10 min. A 10 μl aliquot of the clarified supernatant is injected directly onto LC/MS/MS for analysis. Calibration standards are prepared in blank rat whole blood at 1, 2, 5, 5, 10, 25, 50, 62.5, and 75 ng/ml and processed as described for the samples from rats dosed with tacrolimus.
as §1, with “[…] These changes” for “Samples”, “believed to be caused by drug re-distribution” for “analysed”, “non-targeted organs to systemic circulation.” for “all 15 subjects; one subject is a clear outlier and is excluded from the final analysis (N=14 subjects per dose regimen).”

[8] = 5 rats, Prograf 0.5 mg/kg i.p. once daily from Day 1 + Vehicle 1 from Day 11
[9] = rats, Prograf 0.5 mg/kg i.p. + Vehicle 1
[10] = rats, Prograf 0.5 mg/kg i.p. once daily from Day 1 + Vehicle 1 from Day 11
[11] = Period 1: single oral dose 1 mg tacrolimus alone
[12] = Period 2: 1 mg oral tacrolimus + Q-Captisol po 100 mg three times per day Days 12-14
[13] = male, plasma, Period 1: single oral dose 1 mg tacrolimus alone
[14] = male, plasma, Period 2: 1 mg oral tacrolimus + Q-Captisol po 100 mg three times per day Days 12-14
[15] = male, plasma, Period 3: 1 mg oral tacrolimus after single IV infusion of 100 mg Q-Captisol
[16] = Q-Captisol Dose 0 mg/kg i.p. 30 min before
[17] = Q-Captisol Dose 25 mg/kg i.p. 30 min before
[18] = Q-Captisol Dose 150 mg/kg i.p. 30 min before
[19] = Q-Captisol Dose 300 mg/kg i.p. 30 min before

- fisetin concentration of the solution [1]: approximately 9.47 mg/ml
Compound: O=c1c(O)c(-c2ccc(O)c(O)c2)oc2cc(O)ccc12 [fisetin]

Compound: O=c1c(O)c(-c2ccc(O)c(O)c2)oc2cc(O)cc(O)c12 [quercetin]
- serum half-life [2]: 19 to 25 h
- stability in aqueous solution as a function of pH [3]: stable below pH 3; also recorded: degradation of quercetin above pH 5 became apparent
- stability without precipitation [4]: stable for more than two weeks without precipitation

- Blood glucose Day 1, Mean [5, 8]: 1.27 g/L
- Blood glucose Day 10, Mean [5, 8]: 1.49 g/L
- Blood glucose Day 15, Mean [5, 8]: 2.54 g/L
- Blood glucose Day 20, Mean [5, 8]: 2.93 g/L
- Blood glucose Day 25, Mean [5, 8]: 2.55 g/L
- Blood glucose, Mean change from Day 1, Day 10 [5, 9]: +0.22 g/l
- Blood glucose, Mean change from Day 1, Day 15 [5, 9]: +1.27 g/l
- Blood glucose, Mean change from Day 1, Day 20 [5, 9]: +1.66 g/l
- Blood glucose, Mean change from Day 1, Day 25 [5, 9]: +1.28 g/l
- Blood glucose, Mean change from all vehicle control, Day 1 [5, 9]: -0.10 g/L
- Blood glucose, Mean change from all vehicle control, Day 10 [5, 9]: +0.23 g/l
- Blood glucose, Mean change from all vehicle control, Day 15 [5, 9]: +1.27 g/l
- Blood glucose, Mean change from all vehicle control, Day 20 [5, 9]: +1.81 g/l
- Blood glucose, Mean change from all vehicle control, Day 25 [5, 9]: +1.38 g/l
- CL [6, 11]: 4.75 mL/min/kg
- Vd [6, 11]: 8.5 L/kg
- CL [6, 12]: 3.53 mL/min/kg
- Vd [6, 12]: 8.4 L/kg
- AUC [6, 13]: 48.8 ng·h/mL
- Cmax [6, 13]: 5.8 ng/mL
- Tmax [6, 13]: 1.56 h
- half-life [6, 13]: 20.8 h
- AUC [6, 14]: 65.7 ng·h/mL
- Cmax [6, 14]: 6.5 ng/mL
- Tmax [6, 14]: 1.28 h
- half-life [6, 14]: 27.7 h
- AUC [6, 15]: 56.3 ng·h/mL
- Cmax [6, 15]: 6.4 ng/mL
- Tmax [6, 15]: 1.55 h
- clearance [6, 15]: 4.08 mL/min/kg
- half-life [6, 15]: 19.9 h
- Vd ([6]; male, plasma, Period 3: 1 mg oral tacrolimus after single IV infusion of 100 mg Q-Captisol, read-out: Vd): 7.1 L/kg
- AUC [7, 16]: 645 ng·h/mL
- Cmax [7, 16]: 418 ng/mL
- Vd [7, 16]: 18.6 L/kg
- clearance [7, 16]: 22.9 mL/min/kg
- half-life [7, 16]: 9.4 h
- AUC [7, 17]: 635 ng·h/mL
- Cmax [7, 17]: 426 ng/mL
- Vd [7, 17]: 16 L/kg
- clearance [7, 17]: 23.3 mL/min/kg
- half-life [7, 17]: 7.9 h
- AUC [7, 18]: 980 ng·h/mL
- Cmax [7, 18]: 781 ng/mL
- Vd [7, 18]: 10.9 L/kg
- clearance [7, 18]: 15.5 mL/min/kg
- half-life [7, 18]: 8.1 h
- AUC [7, 19]: 1240 ng·h/mL
- Cmax [7, 19]: 877 ng/mL
- Vd [7, 19]: 8.2 L/kg
- clearance [7, 19]: 12.2 mL/min/kg
- half-life [7, 19]: 7.7 h
- Tmax [7, 18]: 4.98 min
Compound: C=CC[C@@H]1/C=C(\C)C[C@H](C)C[C@H](OC)[C@H]2O[C@@](O)(C(=O)C(=O)N3CCCC[C@H]3C(=O)O[C@H](/C(C)=C/[C@@H]3CC[C@@H](O)[C@H](OC)C3)[C@H](C)[C@@H](O)CC1=O)[C@H](C)C[C@@H]2OC [tacrolimus]
- Blood glucose Day 1, individual rats [5, 10]: 1.16 g/l (2×) and 1.34 g/l and 1.22 g/l and 1.47 g/l
- Blood glucose Day 10, individual rats [5, 10]: 1.30 g/L and 1.39 g/L and 1.40 g/L and 1.09 g/L and 2.25 g/L
- Blood glucose Day 15, individual rats [5, 10]: 3.72 g/L and 1.67 g/L and 2.31 g/L and 1.97 g/L and 3.02 g/L
- Blood glucose Day 20, individual rats [5, 10]: 2.79 g/L and 3.70 g/L and 2.97 g/L and 2.41 g/L and 2.77 g/L
- Blood glucose Day 25, individual rats [5, 10]: 0.97 g/L and 3.16 g/L and 1.69 g/L and 2.98 g/L and 3.96 g/L
